Measurements from ChEMBL document CHEMBL5338785, “Development of Aromatic-Linked Diamino Acid Antimicrobial Peptide Mimics with Low Hemolytic Toxicity and Excellent Activity against Methicillin-Resistant Staphylococcus aureus (MRSA)” (J Med Chem, 2023).
In brackets after ≈: the same amount, converted by molar mass. Activity calls are given as the source filed them. No cut-off for these calls is given here.

Tests used:
[1] = test system: Stenotrophomonas maltophilia; assay: Antibacterial activity against Stenotrophomonas maltophilia assessed as bacterial growth inhibition incubated for 18 hrs by CLSI protocol based Mueller-Hinton broth assay; format: functional
[2] = test system: Escherichia coli; assay: Antibacterial activity against Escherichia coli assessed as bacterial growth inhibition incubated for 18 hrs by CLSI protocol based Mueller-Hinton broth assay; format: functional
[3] = test system: Erythrocyte; assay: (§1) Hemolytic activity in sheep RBC assessed as hemolysis incubated for 1 hr by microplate reader method; format: toxicity, cell-based, Ovis aries; conditions: erythrocyte, 1 h
[4] = Selectivity index, ratio of HC50 for hemolytic activity in sheep RBC to MIC for antibacterial activity against methicillin-resistant Staphylococcus aureus assessed as bacterial growth inhibition; format: toxicity; conditions: for Ratio: erythrocytes; for selectivity ratio: sheep red blood cells
[5] = test system: Staphylococcus aureus; assay: Antibacterial activity against methicillin-resistant Staphylococcus aureus assessed as bacterial growth inhibition incubated for 18 hrs by CLSI protocol based Mueller-Hinton broth assay; format: functional
[6] = test system: Enterococcus faecalis; assay: Antibacterial activity against Enterococcus faecalis assessed as bacterial growth inhibition incubated for 18 hrs by CLSI protocol based Mueller-Hinton broth assay; format: functional
[7] = test system: Staphylococcus aureus; assay: In vivo antibacterial activity against methicillin-resistant Staphylococcus aureus infected in SPF Kunming mouse assessed as reduction in amount of bacteria measure per abscess at 5 mg/kg ,ip administered every 12 hrs for 3 consecutive days; format: functional; conditions: time 3 day
[8] = test system: Staphylococcus aureus; assay: Bactericidal activity against methicillin-resistant Staphylococcus aureus at 3 ug/ml measured after 12 hrs by time-killing kinetics assay; format: functional, organism-based; conditions: dose 3.0 µg/ml
[9] = as §1; format: toxicity, cell-based, Ovis aries, Erythrocyte; conditions: sheep red blood cells
[10] = test system: Staphylococcus aureus; assay: In vivo antibacterial activity against methicillin-resistant Staphylococcus aureus infected in SPF Kunming mouse assessed as reduction in neutrophils in skin tissue at 10 mg/kg ,ip administered every 12 hrs for 3 consecutive days; format: functional, organism-based; conditions: time 3.0 day
[11] = test system: Staphylococcus aureus; assay: In vivo antibacterial activity against methicillin-resistant Staphylococcus aureus infected in SPF Kunming mouse assessed as reduction in inflammation in skin tissue at 10 mg/kg ,ip administered every 12 hrs for 3 consecutive days; format: functional, organism-based; conditions: time 3.0 day
[12] = test system: Staphylococcus aureus; assay: Bactericidal activity against methicillin-resistant Staphylococcus aureus assessed as reduction in turbidity at 3 ug/ml measured after 6 hrs; format: functional, organism-based; conditions: dose 3.0 µg/ml
[13] = test system: Staphylococcus aureus; assay: Antibacterial activity against methicillin-resistant Staphylococcus aureus clinical isolates assessed as bacterial growth inhibition incubated for 18 hrs by CLSI protocol based Mueller-Hinton broth assay; format: functional
[14] = Cytotoxicity against HUVEC cells assessed as reduction in cell viability incubated for 72 hrs by CCK8 assay; format: toxicity, cell-based; conditions: human
[15] = test system: Staphylococcus aureus; assay: Antibacterial activity against methicillin-resistant Staphylococcus aureus assessed as resistance development by measuring increase in MIC measured after 14 days by resistance development assay (reference value: 1 ug/ml); format: functional; conditions: 336 h, time 14 day
[16] = Stenotrophomonas maltophilia, read-out: MIC
[17] = Escherichia coli, 18 h, read-out: MIC
[18] = Staphylococcus aureus, read-out: MIC
[19] = Enterococcus faecalis, 18 h, read-out: MIC

Structure (SMILES): CCCCCCCN(CCCOc1ccc2ccccc2c1-c1c(OCCCN(CCCCCCC)C(=O)[C@@H](N)CCCCN)ccc2ccccc12)C(=O)[C@@H](N)CCCCN.Cl.Cl.Cl.Cl (stereo in doubt; 8n)
- MIC [1, 16]: 2 µg/mL
- MIC [2, 17]: 2 µg/mL
- HC50 [3]: 31 µg/mL
- Ratio [4]: 15.5
- MIC [5, 18]: 2 µg/mL
- MIC [6, 19]: 2 µg/mL

Structure (SMILES): CCCCCCN(CCCOc1ccc2ccccc2c1-c1c(OCCCN(CCCCCC)C(=O)[C@@H](N)CCCCN)ccc2ccccc12)C(=O)[C@@H](N)CCCCN.Cl.Cl.Cl.Cl (stereo in doubt; 8p)
- MIC [1]: 1 µg/mL
- MIC [2]: 2 µg/mL
- HC50 [3]: 117 µg/mL
- Ratio [4]: 117
- MIC [5]: 1 µg/mL
- MIC [6]: 1 µg/mL

Structure (SMILES): CCCCCCCN(CCCOc1ccc2ccccc2c1-c1c(OCCCN(CCCCCCC)C(=O)[C@@H](N)CCCCN)ccc2ccccc12)C(=O)[C@@H](N)CCCCN.Cl.Cl.Cl.Cl (stereo in doubt; 8q)
- MIC [1]: 2 µg/mL
- MIC [2]: 2 µg/mL
- HC50 [3]: 7 µg/mL
- Ratio [4]: 3.5
- MIC [5]: 2 µg/mL
- MIC ([6]; 18 h): 1 µg/mL

Structure (SMILES): CN[C@H](CC(C)C)C(=O)N[C@H]1C(=O)N[C@@H](CC(N)=O)C(=O)N[C@H]2C(=O)N[C@H]3C(=O)N[C@H](C(=O)N[C@H](C(=O)O)c4cc(O)cc(O)c4-c4cc3ccc4O)[C@H](O)c3ccc(c(Cl)c3)Oc3cc2cc(c3O[C@@H]2O[C@H](CO)[C@@H](O)[C@H](O)[C@H]2O[C@H]2C[C@](C)(N)[C@H](O)[C@H](C)O2)Oc2ccc(cc2Cl)[C@H]1O [VANCOMYCIN]
- Activity [7]: 14454.4 CFU
- Activity [8]: Active
- HC50 at 1 h [9]: > 1000 µg/mL
- Activity [10]: Active
- Activity [11]: Active
- Activity [12]: Active

Structure (SMILES): CCCCCCN(CCCOc1ccc2c(OCCCN(CCCCCC)C(=O)[C@@H](N)CCCCN)cccc2c1)C(=O)[C@@H](N)CCCN.Cl.Cl.Cl.Cl
- MIC [1, 16]: 2 µg/mL
- MIC [13]: 0.5 µg/mL
- MIC [2, 17]: 2 µg/mL
- HC50 at 1 h [9]: 612 µg/mL
- selectivity ratio [4]: 306
- MIC [5, 18]: 2 µg/mL
- MIC [6, 19]: 2 µg/mL

Structure (SMILES): C=C[C@]1(C)C[C@@H](OC(=O)CS[C@@H]2C[C@H]3CC[C@@H](C2)N3C)[C@]2(C)[C@H](C)CC[C@]3(CCC(=O)[C@H]32)[C@@H](C)[C@@H]1O [RETAPAMULIN]
- CC50 at 72 h [14]: 25.5 µg/mL (≈ 49.2 µM)

Structure (SMILES): CCCCCCCCN(CCCOc1ccc2ccccc2c1-c1c(OCCCN(CCCCCCCC)C(=O)[C@@H](N)CCCCN)ccc2ccccc12)C(=O)[C@@H](N)CCCCN.Cl.Cl.Cl.Cl (stereo in doubt; 8r)
- MIC [1]: 4 µg/mL
- MIC ([2]; 18 h): 4 µg/mL
- HC50 [3]: 136 µg/mL
- Ratio [4]: 34
- MIC [5]: 4 µg/mL
- MIC [6]: 2 µg/mL

Structure (SMILES): CCCCCCN(CCCOc1ccc(OCCCN(CCCCCC)C(=O)[C@@H](N)CCCCN)cc1)C(=O)[C@@H](N)CCCCN.Cl.Cl.Cl.Cl
- MIC [1, 16]: 16 µg/mL
- MIC [13]: 0.5 µg/mL
- MIC [2, 17]: 16 µg/mL
- HC50 at 1 h [9]: > 1000 µg/mL
- selectivity ratio [4]: > 250
- MIC [5, 18]: 4 µg/mL
- MIC [6, 19]: 4 µg/mL

Structure (SMILES): CCCCCCN(CCCCOc1ccc(OCCCCN(CCCCCC)C(=O)[C@@H](N)CCCCN)cc1)C(=O)[C@@H](N)CCCCN.Cl.Cl.Cl.Cl
- MIC [1, 16]: 4 µg/mL
- MIC [13]: 0.5 µg/mL
- MIC [2, 17]: 4 µg/mL
- HC50 at 1 h [9]: 868 µg/mL
- selectivity ratio [4]: 217
- MIC [5, 18]: 4 µg/mL
- MIC [6, 19]: 4 µg/mL

Structure (SMILES): CCCCCCN(CCCOc1cc2ccccc2cc1OCCCN(CCCCCC)C(=O)[C@@H](N)CCCCN)C(=O)[C@@H](N)CCCCN.Cl.Cl.Cl.Cl
- MIC [1, 16]: 4 µg/mL
- MIC [13]: 0.5 µg/mL
- MIC [2, 17]: 8 µg/mL
- HC50 at 1 h [9]: > 1000 µg/mL
- selectivity ratio [4]: > 1000
- MIC [5, 18]: 1 µg/mL
- MIC [6, 19]: 1 µg/mL

Structure (SMILES): CCn1cc(C(=O)O)c(=O)c2cc(F)c(N3CCNCC3)cc21 [NORFLOXACIN]
- MIC [15]: 128 µg/mL (≈ 401 µM)

Structure (SMILES): CCCCCCN(CCCOc1cccc(OCCCN(CCCCCC)C(=O)[C@@H](N)CCCCN)c1)C(=O)[C@@H](N)CCCCN.Cl.Cl.Cl.Cl
- MIC [1, 16]: 8 µg/mL
- MIC [13]: 0.5 µg/mL
- MIC [2, 17]: 16 µg/mL
- HC50 at 1 h [9]: > 1000 µg/mL
- selectivity ratio [4]: > 500
- MIC [5, 18]: 2 µg/mL
- MIC [6, 19]: 4 µg/mL

Structure (SMILES): CC[C@H](C)[C@H](NC(=O)CN)C(=O)NCC(=O)N[C@@H](C)C(=O)N[C@H](C(=O)N[C@@H](CC(C)C)C(=O)N[C@@H](CCCCN)C(=O)N[C@H](C(=O)N[C@@H](CC(C)C)C(=O)N[C@H](C(=O)N[C@H](C(=O)NCC(=O)N[C@@H](CC(C)C)C(=O)N1CCC[C@H]1C(=O)N[C@@H](C)C(=O)N[C@@H](CC(C)C)C(=O)N[C@H](C(=O)N[C@@H](CO)C(=O)N[C@@H](Cc1c[nH]c2ccccc12)C(=O)N[C@H](C(=O)N[C@@H](CCCCN)C(=O)N[C@@H](CCCNC(=N)N)C(=O)N[C@@H](CCCCN)C(=O)N[C@@H](CCCNC(=N)N)C(=O)N[C@@H](CCC(N)=O)C(=O)N[C@@H](CCC(N)=O)C(N)=O)[C@@H](C)CC)[C@@H](C)CC)[C@@H](C)O)[C@@H](C)O)C(C)C)C(C)C [MELITTIN]
- CC50 at 72 h [14]: 5.8 µg/mL (≈ 2.04 µM)

Structure (SMILES): CCCCCCCN(CCCOc1ccccc1OCCCN(CCCCCCC)C(=O)[C@@H](N)CCCCN)C(=O)[C@@H](N)CCCCN.Cl.Cl.Cl.Cl
- MIC [1, 16]: 8 µg/mL
- MIC [13]: 0.5 µg/mL
- MIC [2, 17]: 16 µg/mL
- HC50 at 1 h [9]: > 1000 µg/mL
- selectivity ratio [4]: > 500
- MIC [5, 18]: 2 µg/mL
- MIC [6, 19]: 1 µg/mL
